These results are taken from patent US12655151B2, “Ion channel modulators” (Praxis Precision Medicines, Inc., priority 2019, dated 2026).

Each structure is given as a SMILES string. Bounds are passed on as bounds.

The target of this assay is T1, human NaV1.6 (hNaV1.6) (Homo sapiens, UniProt Q9UQD0).
T1 construct: expressed in transfected cells; host or cells: HEK-293 (G418 selection)
T1 sequence (Q9UQD0 whole entry): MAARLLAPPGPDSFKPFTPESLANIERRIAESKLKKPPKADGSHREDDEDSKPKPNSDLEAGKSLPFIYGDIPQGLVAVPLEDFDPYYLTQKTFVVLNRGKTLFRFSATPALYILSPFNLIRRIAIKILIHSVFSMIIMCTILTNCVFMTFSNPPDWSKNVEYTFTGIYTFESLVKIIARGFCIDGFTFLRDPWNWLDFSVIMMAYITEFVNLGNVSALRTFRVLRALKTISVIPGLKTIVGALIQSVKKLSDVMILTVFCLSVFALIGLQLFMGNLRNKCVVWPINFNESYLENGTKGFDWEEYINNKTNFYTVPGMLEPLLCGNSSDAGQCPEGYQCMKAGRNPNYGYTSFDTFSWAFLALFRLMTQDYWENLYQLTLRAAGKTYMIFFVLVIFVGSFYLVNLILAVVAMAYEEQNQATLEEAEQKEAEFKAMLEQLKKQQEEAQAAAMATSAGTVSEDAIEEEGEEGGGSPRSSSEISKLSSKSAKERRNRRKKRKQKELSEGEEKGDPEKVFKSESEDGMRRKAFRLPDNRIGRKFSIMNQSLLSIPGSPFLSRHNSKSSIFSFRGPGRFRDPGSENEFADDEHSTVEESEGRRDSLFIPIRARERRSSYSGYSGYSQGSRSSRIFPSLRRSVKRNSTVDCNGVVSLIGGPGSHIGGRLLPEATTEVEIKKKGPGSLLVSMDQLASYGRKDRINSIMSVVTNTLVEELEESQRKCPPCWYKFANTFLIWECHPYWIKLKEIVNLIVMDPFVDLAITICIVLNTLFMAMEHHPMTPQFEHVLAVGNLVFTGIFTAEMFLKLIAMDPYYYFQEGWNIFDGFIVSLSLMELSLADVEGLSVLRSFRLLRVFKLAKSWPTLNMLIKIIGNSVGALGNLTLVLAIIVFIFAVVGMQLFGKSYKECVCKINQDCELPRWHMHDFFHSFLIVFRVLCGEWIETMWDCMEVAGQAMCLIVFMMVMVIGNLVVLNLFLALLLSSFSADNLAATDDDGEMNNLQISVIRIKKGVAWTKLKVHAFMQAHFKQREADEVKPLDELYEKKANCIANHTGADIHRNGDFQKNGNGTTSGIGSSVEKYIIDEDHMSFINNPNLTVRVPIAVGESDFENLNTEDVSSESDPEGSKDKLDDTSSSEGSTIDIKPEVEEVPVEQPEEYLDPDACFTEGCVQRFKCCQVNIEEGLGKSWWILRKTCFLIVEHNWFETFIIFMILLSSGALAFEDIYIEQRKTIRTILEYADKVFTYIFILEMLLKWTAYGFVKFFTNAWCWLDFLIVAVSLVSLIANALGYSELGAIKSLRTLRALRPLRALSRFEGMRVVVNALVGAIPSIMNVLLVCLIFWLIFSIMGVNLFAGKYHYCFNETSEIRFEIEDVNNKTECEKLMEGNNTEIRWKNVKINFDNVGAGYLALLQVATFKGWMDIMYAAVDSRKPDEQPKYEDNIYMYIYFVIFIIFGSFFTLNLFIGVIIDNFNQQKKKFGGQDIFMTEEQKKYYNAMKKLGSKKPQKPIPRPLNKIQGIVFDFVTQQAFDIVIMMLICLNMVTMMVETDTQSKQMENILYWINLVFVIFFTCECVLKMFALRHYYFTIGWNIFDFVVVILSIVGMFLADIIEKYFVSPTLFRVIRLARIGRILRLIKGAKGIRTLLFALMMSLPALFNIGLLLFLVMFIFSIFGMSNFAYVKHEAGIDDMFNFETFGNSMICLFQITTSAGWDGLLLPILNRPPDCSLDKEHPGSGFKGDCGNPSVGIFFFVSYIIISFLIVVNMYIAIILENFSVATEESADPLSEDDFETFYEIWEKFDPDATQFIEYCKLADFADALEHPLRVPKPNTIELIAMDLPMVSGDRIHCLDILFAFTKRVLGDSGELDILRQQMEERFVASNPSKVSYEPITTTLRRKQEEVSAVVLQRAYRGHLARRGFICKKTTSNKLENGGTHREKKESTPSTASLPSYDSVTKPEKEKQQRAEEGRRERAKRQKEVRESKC
Put plainly: Modulation of late sodium current (INaL) at hNaV1.6, PatchXpress electrophysiology. The format is cell-based. As to conditions: HEK293, HEK-293 cells expressing recombinant human NaV1.6, late current evoked by 300 nM ATX-II, read-out: NaV 1.6 Assay Data (percent inhibition of INaL at hNaV1.6). As for the experimental part:
Functional characterization of exemplary compounds to modulate INaL expressed by the NaV1.6 voltage-gated sodium channel was accomplished using the PatchXpress™ high throughput electrophysiology platform (Molecular Devices, Sunnyvale, CA). HEK-293 cells expressing recombinant, human NaV1.6 (hNaV1.6) were grown in DMEM/high-glucose Dulbecco's modified, 10% FBS, 2 mM sodium pyruvate, 10 mM HEPES and 400 μg/mL G418. Cells were grown to 50%-80% confluency prior to harvesting. Trypsinized cells were washed, allowed to recover for 1 hour and then resuspended in extracellular recording solution at a concentration of 1×10^6 cells/ml. The onboard liquid handling facility of the PatchXpress was used for dispensing cells and applying test compounds. NaV late currents were evoked by the application of 300 nM ATX-II. INaL was evoked by depolarizing pulses to 0 mV for 200 ms from a non-inactivating holding potential (e.g., −120 mV) at a frequency of 0.1 Hz. INaL amplitude and stability were determined by analyzing the mean current amplitude over the final 20 ms of the test pulse. Following steady state block with exemplary compounds (e.g., as described herein), a Na+ free solution containing an impermeant cation (e.g., Choline or NDMG) was added to confirm the identity of the sodium current. Percent steady-state inhibition of INaL was calculated as: […], where INaL_compound and INaL_control represent INaL recorded in the presence or absence of compound, respectively.
Results from this assay relating to percent inhibition of INaL at hNaV1.6 (measured using a procedure similar to described above but using HEK-293 cells expressing recombinant, human NaV 1.6 (h NaV 1.6) at 1 μM are summarized in Table 1 below. In this table, “A” indicates inhibition of less than 30%; “B” indicates inhibition of between about 30% to about 70%; and “C” indicates inhibition of greater than 70%. “N/A” indicates not available.
The term inhibition denotes the share of the control response that was lost under treatment. As to `COC(F)(F)c1nnc2cnc(-c3ccc(O[C@H](C4CC4)C(F)(F)F)nc3)cn12` (single isomer, unassigned) [Compound 5], the inhibition at 1 µM is over 70%.
Consider `COC(F)(F)c1nnc2cnc(-c3ccc(O[C@@H](C4CC4)C(F)(F)F)nc3)cn12` (single isomer, unassigned) [Compound 6], for which the inhibition at 1 µM was over 70%.
On to `COC(F)(F)c1nnc2cnc(-c3ccc(O[C@H](C)C(F)F)nc3)cn12` (single isomer, unassigned) [Compound 9], for which the inhibition at 1 µM is over 70%.
Then `COC(F)(F)c1nnc2cnc(-c3ccc(O[C@@H](C)C(F)F)nc3)cn12` (single isomer, unassigned) [Compound 10], with over 70%; and `CC[C@@H](Oc1ccc(-c2cn3c(C(F)(F)OC)nnc3cn2)cn1)C(F)(F)F` (single isomer, unassigned) [Compound 13], with over 70%; and `CC[C@H](Oc1ccc(-c2cn3c(C(F)(F)OC)nnc3cn2)cn1)C(F)(F)F` (single isomer, unassigned) [Compound 14], with over 70%.
Then `COC(F)(F)c1nnc2cnc(-c3ccc(O[C@H](C)C(C)(F)F)nc3)cn12` (single isomer, unassigned) [Compound 15], with over 70%; and `COC(F)(F)c1nnc2cnc(-c3ccc(O[C@@H](C)C(C)(F)F)nc3)cn12` (single isomer, unassigned) [Compound 16], with 30 to 70%.
`CCOC(F)(F)c1nnc2cnc(-c3ccc(O[C@H](CC)C(F)(F)F)nc3)cn12` (single isomer, unassigned) [Compound 19]: the inhibition at 1 µM is over 70%.
For `CCOC(F)(F)c1nnc2cnc(-c3ccc(O[C@@H](CC)C(F)(F)F)nc3)cn12` (single isomer, unassigned) [Compound 20] the value was over 70%; for `CCOC(F)(F)c1nnc2cnc(-c3ccc(O[C@H](C)C(F)F)nc3)cn12` (single isomer, unassigned) [Compound 23], over 70%.
On to `CCOC(F)(F)c1nnc2cnc(-c3ccc(O[C@@H](C)C(F)F)nc3)cn12` (single isomer, unassigned) [Compound 24], for which the inhibition at 1 µM was over 70%.
Then `CCOC(F)(F)c1nnc2cnc(-c3ccc(O[C@H](C(C)C)C(F)(F)F)nc3)cn12` (single isomer, unassigned) [Compound 25], with over 70%; and `CCOC(F)(F)c1nnc2cnc(-c3ccc(O[C@@H](C(C)C)C(F)(F)F)nc3)cn12` (single isomer, unassigned) [Compound 26], with 30 to 70%; and `COC(F)(F)c1nnc2cnc(-c3ccc(O[C@@H](C(C)C)C(F)(F)F)nc3)cn12` (single isomer, unassigned) [Compound 27], with over 70%.
`COC(F)(F)c1nnc2cnc(-c3ccc(O[C@H](C(C)C)C(F)(F)F)nc3)cn12` (single isomer, unassigned) [Compound 28]: the inhibition at 1 µM is over 70%.
Turning to `CCOC(F)(F)c1nnc2cnc(-c3ccc(O[C@H](C4CC4)C(F)(F)F)nc3)cn12` (single isomer, unassigned) [Compound 29], the inhibition at 1 µM was over 70%.
Consider `CCOC(F)(F)c1nnc2cnc(-c3ccc(O[C@@H](C4CC4)C(F)(F)F)nc3)cn12` (single isomer, unassigned) [Compound 30], for which the inhibition at 1 µM was over 70%.
`C[C@@H](Oc1ccc(-c2cn3c(C(F)(F)OC4CC4)nnc3cn2)cn1)C(F)(F)F` [Compound 1, (R)-3-(cyclopropoxydifluoromethyl)-6-(6-((1,1,1-trifluoropropan-2-yl)oxy)pyridin-3-yl)-[1,2,4]triazolo[4,3-a]pyrazine]: the inhibition at 1 µM was over 70%.
Then `C[C@H](Oc1ccc(-c2cn3c(C(F)(F)OC4CC4)nnc3cn2)cn1)C(F)(F)F` [Compound 2, (S)-3-(cyclopropoxydifluoromethyl)-6-(6-((1,1,1-trifluoropropan-2-yl)oxy)pyridine-3-yl)-[1,2,4]triazolo[4,3-a]pyrazine], with over 70%; and `CCOC(F)(F)c1nnc2cnc(-c3ccc(O[C@@H](C)C(F)(F)F)nc3)cn12` [Compound 3, (S)-3-(ethoxydifluoromethyl)-6-(6-((1,1,1-trifluoropropan-2-yl)oxy)pyridin-3-yl)-[1,2,4]triazolo[4,3-a]pyrazine], with over 70%.
Take `CCOC(F)(F)c1nnc2cnc(-c3ccc(OC(C4CC4)C(F)(F)F)nc3)cn12` (stereo not drawn) [Compound 4, 6-(6-(1-cyclopropyl-2,2,2-trifluoroethoxy)pyridin-3-yl)-3-(ethoxydifluoromethyl)-[1,2,4]triazolo[4,3-a]pyrazine]: the inhibition at 1 µM is over 70%.
Take `COC(F)(F)c1nnc2cnc(-c3ccc(OC(C(C)C)C(F)(F)F)nc3)cn12` (stereo not drawn) [Compound 7, 3-(difluoro(methoxy)methyl)-6-(6-((1,1,1-trifluoro-3-methylbutan-2-yl)oxy)pyridin-3-yl)-[1,2,4]triazolo[4,3-a]pyrazine]: the inhibition at 1 µM was over 70%.
Then `CCCOC(F)(F)c1nnc2cnc(-c3ccc(OCC(F)(F)F)nc3)cn12` [Compound 8, 3-[difluoro(propoxy)methyl]-6-[6-(2,2,2-trifluoroethoxy)-3-pyridyl]-[1,2,4]triazolo[4,3-a]pyrazine], with over 70%.
For `CC(C)OC(F)(F)c1nnc2cnc(-c3ccc(OCC(F)(F)F)nc3)cn12` [Compound 11, 3-[difluoro(isopropoxy)methyl]-6-[6-(2,2,2-trifluoroethoxy)-3-pyridyl]-[1,2,4]triazolo[4,3-a]pyrazine], the inhibition at 1 µM was over 70%.
For `COC(F)(F)c1nnc2cnc(-c3ccc(OC4CC(F)(F)C4(F)F)nc3)cn12` (stereo not drawn) [Compound 12, 3-(difluoro(methoxy)methyl)-6-(6-(2,2,3,3-tetrafluorocyclobutoxy)pyridin-3-yl)-[1,2,4]triazolo[4,3-a]pyrazine] the value was over 70%.
Then `CCCOC(F)(F)c1nnc2cnc(-c3ccc(O[C@H](C)C(F)(F)F)nc3)cn12` [Compound 17, 3-[difluoro(propoxy)methyl]-6-[6-[(1R)-2,2,2-trifluoro-1-methyl-ethoxy]-3-pyridyl]-[1,2,4]triazolo[4,3-a]pyrazine], with over 70%; and `CC(C)OC(F)(F)c1nnc2cnc(-c3ccc(O[C@H](C)C(F)(F)F)nc3)cn12` [Compound 18, 3-[difluoro(isopropoxy)methyl]-6-[6-[(1R)-2,2,2-trifluoro-1-methyl-ethoxy]-3-pyridyl]-[1,2,4]triazolo[4,3-a]pyrazine], with over 70%; and `CCCOC(F)(F)c1nnc2cnc(-c3ccc(O[C@@H](C)C(F)(F)F)nc3)cn12` [Compound 21, (S)-3-(difluoro(propoxy)methyl)-6-(6-((1,1,1-trifluoropropan-2-yl)oxy)pyridin-3-yl)-[1,2,4]triazolo[4,3-a]pyrazine], with over 70%.
Turning to `CC(C)OC(F)(F)c1nnc2cnc(-c3ccc(O[C@@H](C)C(F)(F)F)nc3)cn12` [Compound 22, (S)-3-(difluoro(isopropoxy)methyl)-6-(6-((1,1,1-trifluoropropan-2-yl)oxy)pyridin-3-yl)-[1,2,4]triazolo[4,3-a]pyrazine], the inhibition at 1 µM was over 70%.
